The text below walks through data of ChEMBL document CHEMBL2331416, “Investigation of antibacterial mode of action for traditional and amphiphilic aminoglycosides” (Bioorg Med Chem Lett, 2013).

Values after ≈ are worked out from the molar mass of the structure shown. Active and inactive are the calls of the source. No cut-off for these calls is given here.

The nature of assay [1]: Binding affinity to 2-AP labeled 16s rRNA (unknown origin) having pairing of C1405-G1496 by fluorescence assay.
Assay [2] has as its system Escherichia coli. As to the kind of experiment: Antibacterial activity against Escherichia coli ATCC 25922 assessed as growth inhibition. The assay is classed as functional.
In assay [3] the test system is Staphylococcus aureus. Description: Antibacterial activity against Staphylococcus aureus ATCC 25923 assessed as growth inhibition. The assay is classed as functional.
Assay [4] can be described thus: Binding affinity to 2-AP labeled 16s rRNA (unknown origin) having pairing of G1405-C1496 by fluorescence assay.
Assay [5] deals with Staphylococcus aureus. Description: Antibacterial activity against Staphylococcus aureus ATCC 25923 assessed as membrane disruption at 4 X MIC after 2 hrs by SYTOX staining-based fluorescence microscopic analysis. The assay is classed as functional, organism-based.
Assay [6] has as its system Escherichia coli. As to the kind of experiment: Antibacterial activity against Escherichia coli ATCC 25922 assessed as membrane disruption at 4 X MIC after 2 hrs by SYTOX staining-based fluorescence microscopic analysis. The format is functional, organism-based.

On to `C[C@H]1O[C@@H](O[C@@H]2[C@@H](O)[C@H](N)C[C@H](N)[C@H]2O[C@H]2O[C@H](CN)CC[C@H]2N)[C@H](O)[C@@H](O)[C@@H]1O`, for which the Kd turned out to be 1200 nM in assay [1] and 1330 nM in assay [4] (read-out: Kd). In addition, the results for the MIC in the assay on Escherichia coli [2] and in the assay with Staphylococcus aureus [3] were 26 µM (≈ 11.3 µg/mL) and 6.5 µM (≈ 2.84 µg/mL), respectively.
For `NC[C@H]1O[C@@H](O[C@@H]2[C@@H](O)[C@H](N)C[C@H](N)[C@H]2O[C@H]2O[C@H](CN)[C@@H](O)[C@H](O)[C@H]2N)[C@H](O)[C@@H](O)[C@@H]1O`, in that order: 845 nM, 26000 nM, 35.1 µM (≈ 17 µg/mL) and 14.8 µM (≈ 7.16 µg/mL).
As to `C[C@H]1O[C@@H](O[C@@H]2[C@@H](O)[C@H](N)C[C@H](N)[C@H]2O[C@H]2O[C@H](CN)[C@@H](O)[C@H](O)[C@H]2N)[C@H](O)[C@@H](O)[C@@H]1N`, the Kd was 556 nM in assay [1] and “Not Active” in assay [4]. In addition, the MIC was 19.8 µM (≈ 9.26 µg/mL) with Escherichia coli [2] and 11 µM (≈ 5.14 µg/mL) with Staphylococcus aureus [3].
Consider `NC[C@H]1O[C@H](O[C@H]2[C@H](O[C@@H]3O[C@H](CO)[C@@H](O)[C@H](N)[C@H]3O)[C@@H](O)[C@H](N)C[C@@H]2N)[C@H](N)[C@@H](O)[C@@H]1O`, for which the Kd is 1150 nM in assay [1] and “Not Active” in assay [4]. The MIC with Escherichia coli [2] was determined as 57.2 µM (≈ 27.7 µg/mL); in the assay with Staphylococcus aureus [3], 59.2 µM (≈ 28.6 µg/mL).
`C[C@H]1O[C@@H](O[C@@H]2[C@@H](O)[C@H](NC(=O)[C@@H](O)CCN)C[C@H](N)[C@H]2O[C@H]2O[C@H](CN)CC[C@H]2N)[C@H](O)[C@@H](O)[C@@H]1N` [PYRANKACIN]: the Kd in assay [1] came to 1360 nM; in assay [4] (read-out: Kd), 650 nM. The results for the MIC in the assay on Escherichia coli [2] and with Staphylococcus aureus [3] were 5.59 µM (≈ 3 µg/mL) and 2.8 µM (≈ 1.5 µg/mL), respectively.
Consider `NC[C@@H]1O[C@H](O[C@H]2[C@@H](O)[C@H](O[C@@H]3[C@@H](O)[C@H](N)C[C@H](N)[C@H]3O[C@H]3O[C@H](CN)[C@@H](O)[C@H](O)[C@H]3N)O[C@@H]2CO)[C@H](N)[C@@H](O)[C@@H]1O` [FRAMYCETIN], for which the Kd in assay [1] was 1270 nM; in assay [4] (read-out: Kd), 1150 nM. Also, the MIC was determined as 4.4 µM (≈ 2.7 µg/mL) in the assay on Escherichia coli [2] and 1.1 µM (≈ 0.676 µg/mL) in the assay on Staphylococcus aureus [3]. The outcome in the assay on Staphylococcus aureus [5] was inactive.
On to `NC[C@H]1O[C@H](O[C@H]2[C@H](O[C@@H]3O[C@H](CO)[C@@H](O)[C@H](O)[C@H]3O)[C@@H](O)[C@H](N)C[C@@H]2N)[C@H](N)[C@@H](O)[C@@H]1O`, for which the figures for the Kd in assay [1] and in assay [4] (read-out: Kd) were 608 nM and 9670 nM, respectively. In addition, the MIC came to 92.4 µM (≈ 44.8 µg/mL) in the assay on Escherichia coli [2] and 44.4 µM (≈ 21.5 µg/mL) in the assay with Staphylococcus aureus [3].
As for `NC[C@H]1O[C@@H](O[C@@H]2[C@@H](O)[C@H](N)C[C@H](N)[C@H]2O[C@H]2O[C@H](CN)[C@@H](O)[C@H](O)[C@H]2N)[C@H](O)[C@@H](O)[C@@H]1N`, the Kd in assay [1] worked out at 261 nM; in assay [4] (read-out: Kd), 3720 nM. Moreover, the MIC in the assay with Escherichia coli [2] was found to be 41.8 µM (≈ 20.2 µg/mL); in the assay on Staphylococcus aureus [3], 29.6 µM (≈ 14.3 µg/mL).
Regarding `NC[C@H]1O[C@H](O[C@H]2[C@H](O[C@@H]3O[C@H](CO)[C@@H](N)[C@H](O)[C@H]3O)[C@@H](O)[C@H](N)C[C@@H]2N)[C@H](N)[C@@H](O)[C@@H]1O`, the Kd in assay [1] worked out at 2830 nM; in assay [4] (read-out: Kd) it was 5680 nM. In addition, the MIC in the assay with Escherichia coli [2] turned out to be 44 µM (≈ 21.3 µg/mL); with Staphylococcus aureus [3] it was 29.6 µM (≈ 14.3 µg/mL).
On to `CCCCCCCCCCCCCCCC(=O)NC[C@H]1O[C@@H](O[C@@H]2[C@@H](O)[C@H](N)C[C@H](N)[C@H]2O[C@H]2O[C@H](CN)[C@@H](O)[C@H](O)[C@H]2N)[C@H](O)[C@@H]1O[C@@H]1O[C@H](CN)[C@H](O)[C@@H](O)[C@@H]1N`, for which the Kd in assay [1] turned out to be 737 nM; in assay [4] (read-out: Kd), 1270 nM. Besides, the MIC in the assay with Escherichia coli [2] came to 4.69 µM (≈ 4 µg/mL); in the assay on Staphylococcus aureus [3], 2.35 µM (≈ 2 µg/mL). Also, the outcome with Staphylococcus aureus [5] and in the assay on Escherichia coli [6] was Active.
Consider `NCC[C@H](O)C(=O)N[C@@H]1C[C@H](N)[C@@H](O[C@H]2O[C@H](CN)[C@@H](O)[C@H](O)[C@H]2N)[C@H](O[C@@H]2O[C@H](CO)[C@@H](O[C@@H]3O[C@H](CN)[C@H](O)[C@@H](O)[C@@H]3N)[C@H]2O)[C@H]1O` [NEOKACIN], for which the equilibrium dissociation constant (Kd) is 1640 nM in assay [1] and “Not Active” in assay [4]. The MIC with Escherichia coli [2] was 8.59 µM (≈ 6.15 µg/mL); with Staphylococcus aureus [3] it was 2.15 µM (≈ 1.54 µg/mL).
